Source: patent publication US10385395B2, “Diagnostic tools for response to 6-thiopurine therapy” (THE REGENTS OF THE UNIVERSITY OF CALIFORNIA, priority 2012, dated 2019)

B1: IFN-y: recombinant cytokine (R&D Systems) added to a final concentration of 20 ng ml-1 (protein, UniProt P01579 24-161, looked up)
Interferon gamma: QDPYVKEAENLKKYFNAGHSDVADNGTLFLGILKNWKEESDRKIMQSQIVSFYFKLFKNFKDDQSIQKSVETIKEDMNVKFFNSNKKKRDDFEKLTNYSVTDLNVQRKAIHELIQVMAELSPAAKTGKRKRSQMLFRG

What was measured:
[1] = test system: CD4+ T cell proliferation; assay: T cell proliferation in the absence of NK cells with exogenous cytokines added; assay type: cell-based, human; settings: cytokine added at 20 ng mL-1, three-day culture (FIG. 9)
Description: Before co-culture, round bottom 96-well plates were coated with anti-CD3/CD28 antibody (R&D Systems, Minneapolis, Minn.) in PBS at 1.5 ug ml^−1 at room temperature for 2 hours, or at 0.5 ug ml^−1 at 4° C. overnight. […] For transwell assay, 24-well plates were used; NT (cells were placed on the filter side of a 1.0 um pore-sized transwell (BD Falcon, San Jose, Calif.), and CFSE-stained T cells were placed on the plate side of the transwell.

NK cells = settings: Crohn's disease patients; Brogan et al. 1985; cited from earlier work

Row | Molecule | CD4+ cell proliferation with exogenous cytokine [1] | depletion of NK cells by therapy compared to other lymphoid cell types (NK cells)
1 | IL-6: recombinant cytokine (R&D Systems) added to a final concentration of 20 ng ml-1 | greatly facilitated | 
2 | Nc1nc2nc[nH]c2c(=S)[nH]1 [6-thioguanine] |  | quickly and profoundly depleted
3 | B1 | marginal effects | 
